For 27 compounds, IC50 results are on record in US10072001B2, “Tank-binding kinase inhibitor compounds” (Gilead Sciences, Inc., priority 2014, dated 2018).

Bounds are passed on as bounds.

The target in one test is IKKε (Homo sapiens (Human), UniProt Q14164). Description: TR-FRET kinase assay, IKKε. It is filed as biochemical. The conditions noted are these: full length recombinant IKKε 0.3 nM, 2x Km ATP, 1 μM peptide, 240 min at 25° C.; geometric mean of minimum four determinations. The text has this: Biological Assay for TBK1 and IKKs:
In general terms: TR-FRET usually uses a lanthanide donor and a delayed reading to cut background.

For a further test, the target named is TBK1 (Homo sapiens (Human), UniProt Q9UHD2). Description: TR-FRET kinase assay, TBK1. Particulars: read-out: TBK1-IC50; full length recombinant TBK1 2.5 nM, 2x Km ATP, 1 μM peptide, 240 min at 25° C.; geometric mean of minimum four determinations.
Sequence of TBK1 (Q9UHD2 whole entry): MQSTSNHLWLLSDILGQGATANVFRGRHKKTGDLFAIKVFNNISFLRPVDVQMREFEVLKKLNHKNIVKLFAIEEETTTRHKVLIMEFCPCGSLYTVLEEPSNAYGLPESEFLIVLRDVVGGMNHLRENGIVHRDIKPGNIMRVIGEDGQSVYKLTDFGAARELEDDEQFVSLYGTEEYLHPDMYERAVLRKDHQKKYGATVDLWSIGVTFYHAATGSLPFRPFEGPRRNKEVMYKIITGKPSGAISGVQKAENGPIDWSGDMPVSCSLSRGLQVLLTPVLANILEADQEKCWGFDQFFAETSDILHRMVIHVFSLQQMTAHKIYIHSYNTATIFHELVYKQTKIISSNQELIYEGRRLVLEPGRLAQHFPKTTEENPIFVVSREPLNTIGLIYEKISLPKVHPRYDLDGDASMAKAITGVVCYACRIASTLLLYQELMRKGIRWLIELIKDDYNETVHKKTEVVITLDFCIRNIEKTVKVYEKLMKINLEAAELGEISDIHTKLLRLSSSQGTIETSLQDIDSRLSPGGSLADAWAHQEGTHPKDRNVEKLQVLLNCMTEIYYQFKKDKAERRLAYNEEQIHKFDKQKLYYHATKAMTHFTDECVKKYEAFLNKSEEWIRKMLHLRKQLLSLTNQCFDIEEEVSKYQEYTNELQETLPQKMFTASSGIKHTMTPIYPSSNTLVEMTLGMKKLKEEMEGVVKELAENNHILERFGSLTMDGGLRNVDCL

Sequence of IKKε (Q14164 whole entry): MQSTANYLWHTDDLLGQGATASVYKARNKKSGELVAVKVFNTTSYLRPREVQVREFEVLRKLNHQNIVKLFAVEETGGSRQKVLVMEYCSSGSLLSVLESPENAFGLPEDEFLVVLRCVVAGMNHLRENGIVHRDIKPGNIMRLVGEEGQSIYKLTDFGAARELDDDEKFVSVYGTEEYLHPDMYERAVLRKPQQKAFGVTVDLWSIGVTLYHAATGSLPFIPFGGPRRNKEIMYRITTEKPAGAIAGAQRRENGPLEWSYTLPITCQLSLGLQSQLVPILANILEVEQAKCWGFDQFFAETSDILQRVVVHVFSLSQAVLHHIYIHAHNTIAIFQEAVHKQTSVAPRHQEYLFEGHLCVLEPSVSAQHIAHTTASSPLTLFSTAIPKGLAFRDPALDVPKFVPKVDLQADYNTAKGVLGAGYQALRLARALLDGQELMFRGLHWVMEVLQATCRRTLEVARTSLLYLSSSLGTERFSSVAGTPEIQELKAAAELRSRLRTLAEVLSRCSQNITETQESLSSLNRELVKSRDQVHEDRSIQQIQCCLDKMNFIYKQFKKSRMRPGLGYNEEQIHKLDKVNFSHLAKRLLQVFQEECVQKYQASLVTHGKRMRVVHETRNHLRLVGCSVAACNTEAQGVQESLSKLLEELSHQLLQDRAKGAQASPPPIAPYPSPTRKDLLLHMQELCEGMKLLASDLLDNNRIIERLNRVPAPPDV

As to `COc1ccc(-c2nc3c(-c4ccc(OC5CCOCC5)c(C#N)c4)ncnc3[nH]2)cc1` [Example 146, 5-(8-(4-methoxyphenyl)-9H-purin-6-yl)-2-((tetrahydro-2H-pyran-4-yl)oxy)benzonitrile], the values for the 50% inhibitory concentration (IC50) at IKKε and on TBK1 were 0.0234 µM and 0.00471 µM, respectively.

For `N#Cc1cc(-c2ccnc3[nH]c(-c4ccc(N5CCOCC5)cc4)cc23)ccc1OC1CCN(C(=O)CO)CC1` [Example 19, 2-((1-(2-hydroxyacetyl)piperidin-4-yl)oxy)-5-(2-(4-morpholinophenyl)-1H-pyrrolo[2,3-b]pyridin-4-yl)benzonitrile], the IC50 on IKKε amounted to 0.00372 µM; at TBK1 it was 0.0019 µM.

Consider `CS(=O)(=O)N1CCN(c2ccc(-c3cc4c(-c5ccc(OC6CCOCC6)c(C#N)c5)ccnc4[nH]3)cc2)CC1` [Example 55, 5-(2-(4-(4-(methylsulfonyl)piperazin-1-yl)phenyl)-1H-pyrrolo[2,3-b]pyridin-4-yl)-2-((tetrahydro-2H-pyran-4-yl)oxy)benzonitrile], for which the IC50 is greater than 1 µM at IKKε and 0.00284 µM on TBK1.

On to `COc1cc(-c2cc3c(-c4ccc(OC5CCOCC5)c(C#N)c4)ncnc3[nH]2)ccc1N1CCN(C2COC2)CC1` [Example 143, 5-(6-(3-methoxy-4-(4-(oxetan-3-yl)piperazin-1-yl)phenyl)-7H-pyrrolo[2,3-d]pyrimidin-4-yl)-2-((tetrahydro-2H-pyran-4-yl)oxy)benzonitrile], for which the IC50 at IKKε was 0.0069 µM; at TBK1 it was 0.00102 µM.

On to `N#Cc1cc(-c2ccnc3[nH]c(C4=CCN(C(=O)CO)C4)cc23)ccc1OC1CCOCC1` [Example 182, 5-(2-(1-(2-hydroxyacetyl)-2,5-dihydro-1H-pyrrol-3-yl)-1H-pyrrolo[2,3-b]pyridin-4-yl)-2-((tetrahydro-2H-pyran-4-yl)oxy)benzonitrile], for which the IC50 came to 0.0355 µM at IKKε and 0.0148 µM on TBK1.

Regarding `CC(C)(C)OC(=O)n1ccc2cc(-c3cc4c(-c5ccc(OC6CCOCC6)c(C#N)c5)ccnc4[nH]3)ccc21` [Example 44, tert-butyl 5-(4-(3-cyano-4-((tetrahydro-2H-pyran-4-yl)oxy)phenyl)-1H-pyrrolo[2,3-b]pyridin-2-yl)-1H-indole-1-carboxylate], the IC50 on IKKε and at TBK1 was greater than 1 µM throughout.

For `N#Cc1cc(-c2ccnc3[nH]c(-c4cc5ccccc5[nH]4)cc23)ccc1OC1CCOCC1` [Example 38], the IC50 came to 0.0767 µM on IKKε and 0.0325 µM on TBK1.

On to `N#Cc1cc(-c2ncnc3[nH]c(-c4ccc(C(=O)N5CCCC5)cc4)cc23)ccc1OC1CCOCC1` [Example 185, 5-(6-(4-(pyrrolidine-1-carbonyl)phenyl)-7H-pyrrolo[2,3-d]pyrimidin-4-yl)-2-((tetrahydro-2H-pyran-4-yl)oxy)benzonitrile], for which the half-maximal inhibitory concentration (IC50) at IKKε worked out at 0.00539 µM; at TBK1 it was 0.00134 µM.

For the compound `N#Cc1cc(-c2c(F)cnc3[nH]c(-c4ccc(OCCN5CCCC5)cc4)cc23)ccc1OC1CCOCC1` [Example 174, 5-(5-fluoro-2-(4-(2-(pyrrolidin-1-yl)ethoxy)phenyl)-1H-pyrrolo[2,3-b]pyridin-4-yl)-2-((tetrahydro-2H-pyran-4-yl)oxy)benzonitrile], the concentration for half-maximal inhibition (IC50) on IKKε came to 0.0083 µM; at TBK1 it was 0.00635 µM.

Take `N#Cc1cc(-c2ccnc3[nH]c(C(=O)NC4CC4)cc23)ccc1OC1CCOCC1` [Example 59, 4-(3-cyano-4-((tetrahydro-2H-pyran-4-yl)oxy)phenyl)-N-cyclopropyl-1H-pyrrolo[2,3-b]pyridine-2-carboxamide]: the IC50 on IKKε came out at 0.0554 µM; at TBK1 it was 0.0794 µM.

Consider `CN1CCN(c2ccc(-c3nc4c(-c5ccc(OC6CCN(C(=O)C(F)F)CC6)c(C#N)c5)ncnc4[nH]3)cc2)CC1` [Example 268, 2-((1-(2,2-difluoroacetyl)piperidin-4-yl)oxy)-5-(8-(4-(4-methylpiperazin-1-yl)phenyl)-9H-purin-6-yl)benzonitrile], for which the figures for the half-maximal inhibitory concentration (IC50) on IKKε and at TBK1 were 0.00225 µM and 0.00392 µM, respectively.

For the compound `N#Cc1cc(-c2ncnc3[nH]c(-c4ccc(N5CCOCC5)nc4)nc23)ccc1OC1CCOCC1` [Example 243, 5-(8-(6-morpholinopyridin-3-yl)-9H-purin-6-yl)-2-((tetrahydro-2H-pyran-4-yl)oxy)benzonitrile], the 50% inhibitory concentration (IC50) at IKKε turned out to be 1 µM; on TBK1, 0.0116 µM.

With `N#Cc1cc(-c2ccnc3[nH]c(-c4ccc(N5CCN(C6COC6)CC5)cc4)cc23)ncc1OC1CCN(C(=O)CO)CC1(F)F` (stereo not drawn) [Example 176, 5-((3,3-difluoro-1-(2-hydroxyacetyl)piperidin-4-yl)oxy)-2-(2-(4-(4-(oxetan-3-yl)piperazin-1-yl)phenyl)-1H-pyrrolo[2,3-b]pyridin-4-yl)isonicotinonitrile], the IC50 on IKKε worked out at 0.00144 µM; at TBK1 it was 0.00181 µM.

Take `N#Cc1cc(-c2ncnc3[nH]c(-c4ccc(N5CCOCC5)cc4)cc23)ccc1CN1CCCC1=O` [Example 115, 5-(6-(4-morpholinophenyl)-7H-pyrrolo[2,3-d]pyrimidin-4-yl)-2-((2-oxopyrrolidin-1-yl)methyl)benzonitrile]: the IC50 on IKKε was found to be 1 µM; on TBK1, 0.0457 µM.

`N#Cc1nc(-c2ccnc3[nH]c(-c4ccc(N5CCOCC5)cc4)cc23)ccc1OC1CCOCC1` [Example 86, 6-(2-(4-morpholinophenyl)-1H-pyrrolo[2,3-b]pyridin-4-yl)-3-((tetrahydro-2H-pyran-4-yl)oxy)picolinonitrile]: the IC50 at IKKε came out at 0.0138 µM; on TBK1, 0.00389 µM.

Consider `N#Cc1cc(-c2ncnc3[nH]c(-c4ccc(N5CCOCC5)cc4)nc23)ccc1OC1CCNCC1` [Example 204, 5-(8-(4-morpholinophenyl)-9H-purin-6-yl)-2-(piperidin-4-yloxy)benzonitrile], for which the IC50 on IKKε is 0.0837 µM; on TBK1, 0.0368 µM.

Take `COc1cc(-c2cc3c(-c4ccc(N5CC[C@@H](O)C5)c(C#N)c4)ncnc3[nH]2)ccc1N1CCN(C2COC2)CC1` [Example 142, (R)-2-(3-hydroxypyrrolidin-1-yl)-5-(6-(3-methoxy-4-(4-(oxetan-3-yl)piperazin-1-yl)phenyl)-7H-pyrrolo[2,3-d]pyrimidin-4-yl)benzonitrile]: the IC50 at IKKε turned out to be 0.0147 µM; at TBK1 it was 0.00203 µM.

On to `N#Cc1cc(-c2ncnc3[nH]c(-c4ccc(N5CCOCC5)cc4)cc23)ccc1OC1CCOCC1` [Example 101, 5-(6-(4-morpholinophenyl)-7H-pyrrolo[2,3-d]pyrimidin-4-yl)-2-((tetrahydro-2H-pyran-4-yl)oxy)benzonitrile], for which the IC50 at IKKε is 0.00806 µM; on TBK1, 0.00172 µM.

With `N#Cc1cc(-c2ccnc3[nH]c(C#CCO)cc23)ccc1OC1CCOCC1` [Example 148, 5-(2-(3-hydroxyprop-1-yn-1-yl)-1H-pyrrolo[2,3-b]pyridin-4-yl)-2-((tetrahydro-2H-pyran-4-yl)oxy)benzonitrile], the results for the half-inhibitory concentration (IC50) at IKKε and at TBK1 were 0.205 µM and 0.184 µM, respectively.

Regarding `Cn1cc(-c2cc3c(-c4ccc(OC5CCOCC5)c(C#N)c4)ccnc3[nH]2)cn1` [Example 84, 5-(2-(1-methyl-1H-pyrazol-4-yl)-1H-pyrrolo[2,3-b]pyridin-4-yl)-2-((tetrahydro-2H-pyran-4-yl)oxy)benzonitrile], the concentration for half-maximal inhibition (IC50) turned out to be 0.00471 µM on IKKε and 0.00368 µM on TBK1.

Regarding `CS(=O)(=O)N1CCC(Oc2ccc(-c3ncnc4[nH]c(-c5ccc(N6CCOCC6)cc5)nc34)cc2C#N)CC1` [Example 253, 2-((1-(methylsulfonyl)piperidin-4-yl)oxy)-5-(8-(4-morpholinophenyl)-9H-purin-6-yl)benzonitrile], the concentration for half-maximal inhibition (IC50) is 0.0398 µM at IKKε and 0.0198 µM at TBK1.

Take `CN1CCN(C(=O)c2ccc(-c3cc4c(-c5ccc(OC6CCOCC6)c(C#N)c5)ncnc4[nH]3)cc2)CC1` [Example 187, 5-(6-(4-(4-methylpiperazine-1-carbonyl)phenyl)-7H-pyrrolo[2,3-d]pyrimidin-4-yl)-2-((tetrahydro-2H-pyran-4-yl)oxy)benzonitrile]: the 50% inhibitory concentration (IC50) on IKKε is 0.00188 µM; at TBK1, 0.00116 µM.

Regarding `N#Cc1cc(-c2ncnc3[nH]c(-c4ccc(OCCN5CCCC5)cc4)cc23)ccc1OC1CCOCC1` [Example 226, 5-(6-(4-(2-(pyrrolidin-1-yl)ethoxy)phenyl)-7H-pyrrolo[2,3-d]pyrimidin-4-yl)-2-((tetrahydro-2H-pyran-4-yl)oxy)benzonitrile], the 50% inhibitory concentration (IC50) on IKKε is 0.0018 µM; at TBK1, 0.00124 µM.

For the compound `CNC(=O)c1cccc(-c2cc3c(-c4ccc(OC5CCOCC5)c(C#N)c4)ccnc3[nH]2)c1` [Example 40, 3-(4-(3-cyano-4-((tetrahydro-2H-pyran-4-yl)oxy)phenyl)-1H-pyrrolo[2,3-b]pyridin-2-yl)-N-methylbenzamide], the IC50 on IKKε was 0.0111 µM; at TBK1 it was 0.00798 µM.

Consider `CN(C)CC(=O)N1CC[C@@H](Oc2ccc(-c3ccnc4[nH]c(-c5ccc(N6CCOCC6)cc5)cc34)cc2C#N)C1` [Example 30, (R)-2-((1-(2-(dimethylamino)acetyl)pyrrolidin-3-yl)oxy)-5-(2-(4-morpholinophenyl)-1H-pyrrolo[2,3-b]pyridin-4-yl)benzonitrile], for which the values for the IC50 on IKKε and at TBK1 were 0.135 µM and 0.0707 µM, respectively.

As for `COc1cc(-c2cc3c(-c4ccc(O[C@H]5CCNC[C@H]5F)c(C#N)c4)ncnc3[nH]2)ccc1N1CCN(C2COC2)CC1` [Example 144, 2-(((3R,4S)-3-fluoropiperidin-4-yl)oxy)-5-(6-(3-methoxy-4-(4-(oxetan-3-yl)piperazin-1-yl)phenyl)-7H-pyrrolo[2,3-d]pyrimidin-4-yl)benzonitrile], the half-inhibitory concentration (IC50) on IKKε worked out at 0.0644 µM; at TBK1, 0.00617 µM.

In the case of `Cn1cc(-c2nc3c(-c4ccc(OC5CCOCC5)c(C#N)c4)ccnc3[nH]2)cn1` [Example 307, 5-(2-(1-methyl-1H-pyrazol-4-yl)-3H-imidazo[4,5-b]pyridin-7-yl)-2-((tetrahydro-2H-pyran-4-yl)oxy)benzonitrile], the IC50 on IKKε was determined as 0.0213 µM; at TBK1, 0.0442 µM.

In general, IC50 refers to the concentration needed to halve the response being measured.
